Values after ≈ are worked out from the molar mass of the structure shown.
Columns and labels:
[1] = target: T1, Elastase enzyme from pig pancreas (Sus scrofa, UniProt P00772); test: Anti elastase activity (EnzChek DQ elastin fluorescence assay); assay type: biochemical
T1 construct: purchased; host or cells: pig pancreas
Excerpt: Elastase is one of the […], which digest elastin and other components of the extra cellular matrix and is important both for normal skin development. If this enzyme is not regulated by inhibitor proteins results in wrinkling of skin, premature ageing and carcinogenesis. The Anti-Elastase assay by Enz Chek elastase assay kit determines the elastase inhibitory activity of the products. The assays were done using the EnzChek elastase assay kit. The substrate is DQ elastin soluble bovine neck ligament. DQ elastin is labelled with BODIPY FL dye. The non-fluorescent substrate can be digested by elastase to yield highly fluorescent fragments and in the presence of inhibitor, the fluorescence intensity is quenched. The fluorescence intensity was measured in a microplate reader ([…].)
The assay was performed in a 96 well black microtitre plate. […] 100 μl of the Elastase enzyme solution (final concentration-0.1 U/ml) was added and the fluorescence intensity was measured at Em: 485 nm and Ex: 520 nm after 30 minutes. Enzyme activity of control (buffer) was recorded.
[formula] • B—Fluorescence in the presence of enzyme • BC—Fluorescence in the absence of enzyme activity • T—Fluorescence of enzyme activity in the presence of inhibitor • C—Fluorescence of the inhibitor alone Result

collagen in fibroblasts = test: Collagen production / collagen staining in fibroblasts; assay type: cell-based, human
[2] = system: TNF-α secretion by THP-1 human monocytes; test: Anti inflammatory activity: LPS induced TNF-α secretion in THP-1 cells (ELISA); assay type: cell-based; details: for % Inhibition (TNF-α): LPS stimulated THP-1, 24 hour
Description: Anti inflammatory activity was examined using human monocyte/macrophage cell line THP-1. Monocytes respond to lipo-polysaccharides (LPS) by secreting pro-inflammatory cytokines. Tumour necrosis factor (TNF-α) is one of the principle cytokine which triggers a cascade of inflammatory reactions. The concentration of TNF-α was measured using an Enzyme linked Immunosorbent assay (ELISA). Reduction in TNF-α concentration indicates an anti inflammatory activity of the compound.
Cells: THP1-human monocytes purchased from American Type Culture Collection (ATCC, Manassas, Va.) and maintained as a monolayer culture in Rosewell park memorial institute Medium (RPMI Life technologies, CA, USA) supplemented with 10% (v/v) heat-inactivated foetal bovine serum (FBS; GIBCO/Invitrogen, Carlsbad, Calif.), 100 units/mL penicillin and 100 μg/mL streptomycin (Life technologies) at 37° C. in a humidified 5% CO2 incubator.
ELISA kit: Human TNF ELISA kit, Krishgen Biosciences, USA
1×10^5 THP-1 cells were stimulated with 100 ng with lipopolysacharide (LPS, 0.1 μg/mL) to induce TNF-α secretion. Cells were pre treated with different concentrations of oleanoyl KVK before LPS treatment. The cell supernatants were collected 24 hour after treatment and secreted TNF-α as estimated by cytokine ELISA as described by the manufacturer. Un-stimulated cells were used as negative control. The limit of detection was <1 pg/mL.

THP-1 cells = test: Cell viability of THP-1 cells in the anti inflammatory assay; assay type: cell-based, human
[3] = system: Collagenase Type IV from Clostridium histolyticum; test: Anti collagenase activity (EnzChek DQ gelatin fluorescence assay); assay type: biochemical
Excerpt: Collagenase is one of the matrix metalloprotease, which digest collagen and other components of the extra cellular matrix (ECM). The ECM serves as a scaffold to stabilize the skin structure, and also helps in proliferation and metabolic functions of the skin cells. Loss of collagen leads to wrinkles and sagging of skin. The principle of the assay of collagenase inhibition is based on the fact that the substrate DQ™ gelatine is conjugated to fluorecein—a fluorescent compound. In DQ™ gelatine, fluorescence is quenched. DQ™ gelatine is efficiently digested by collagenases to yield a fluorescent compound which can be measured. The increase in fluorescence is proportional to enzyme activity. In the presence of an anti collagenase compound the amount of fluorescence will be decreased for a fixed concentration of enzyme and substrate.
• Equipment-BMG FLUOstar Optima (fluorescent Microplate reader) • Reagents: Phosphate buffer (pH 7.4) • Collagenase Enzyme assay kit (Enzchek® collagenase, gelatinase assay kit, Invitrogen, USA) • Microtitre plates—96 well microtitre plates (black)—Corning, USA
The assay was performed in a 96 well black microtitre plate. […] 100 μl of the Collagenase enzyme solution (final concentration-0.4 U/ml) was added and the fluorescence intensity was measured at Em: 485 nm and Ex: 520 nm after 30 minutes. Enzyme activity of control (buffer) was recorded. […]

keratinocytes = test: Gene expression analysis in keratinocytes (quantitative RT-PCR); assay type: cell-based, human; details: 6.25 μg/ml, 24 hours
Description: (§1) Human dermal fibroblasts and keratinocytes were cultured in 6 well microtiter plates in the presence of 6.25 μg/ml oleanoyl KVK for 24 hours. Untreated cells were used as control. At the end of incubation time, the cells were lysed and RNA was extracted. […] Extracted RNA was treated with DNAse I to remove any contaminating DNA and again extracted using phenol: chloroform: isoamyl alcohol extraction ([…]). Quality of RNA was determined by checking the absorbance at 260/280 nm using a Nanodrop (Thermo). 2 μg of total RNA was taken for cDNA synthesis using Super Script III First-Strand Synthesis System (Life Technologies). Quantitative RT-PCR analysis was performed to determine the expression of brown fat specific genes in Roche Light cycler 96 using SYBR Green master mix (Thermo Scientific). β actin was used as a house keeping gene. The relative RNA abundance of the genes was normalized to the housekeeping β actin gene and expressed as delta delta CT (equivalent to fold change transformed by Log2).

[4] = system: Human keratinocytes (HaCAT); test: Protection against UVB induced apoptosis, DNA damage and death (annexin-FITC/PI flow cytometry); assay type: cell-based; details: UVB exposed HaCAT
Description: Cells: Human keratinocytes (HaCAT)—cells were maintained as a monolayer culture in Dulbeccos modified minimal essential medium (DMEM) Life technologies, CA, USA) supplemented with 10% (v/v) heat-inactivated foetal bovine serum (FBS; GIBCO/Invitrogen, Carlsbad, Calif.), 100 units/mL penicillin and 100 μg/mL streptomycin (Life technologies) at 37° C. in a humidified 5% CO2 incubator.
Reagents: Dulbeccos modified minimal essential medium (DMEM), Fetal bovine serum (FBS), Annexin-FITC, Propidium Iodide-Apoptosis detection kit, Biovision, USA.
Instrument: Flow Cytometry (BD-FACS-Celesta).
Cells (3×10^5) were pre-treated with different concentrations of test sample for one hour and exposed to UVB. Cells were exposed to UVB rays for 10 min and incubated for 16 hours in DMEM with 2% serum. Cells were labelled with annexin-FITC and propidium iodide […] for 10 minutes in dark and analyzed using flow cytometer (BD FACS-Celesta).

[5] = system: Human keratinocytes (HaCAT); test: ROS scavenging in keratinocytes, UV induced oxidative stress (DCFH-DA); assay type: cell-based; details: 6.25 μg/ml
Description: (§2) Cells: Human keratinocytes (HaCAT)—cells were maintained in fibroblast media (Gibco) at 37° C. in a humidified 5% CO2 incubator.
Reagents: Keratinocyte media (Gibco) DCFH-DA Instrument: FluoStar Optima microplate reader.
(§3) Reactive oxygen species include a number of molecules that damage DNA and RNA and oxidize proteins and lipids (lipid peroxydation). These reactive molecules contain an oxygen atom/molecule and include H2O2 (hydrogen peroxide), NO (nitric oxide), O2^− ([…]), peroxynitrite (ONOO^−), hydrochlorous acid (HOCl), and hydroxyl radical (OH). 5-(and 6)-chloromethyl-20, 70-dichlorohydrofluorescein diacetate (CM-H2DCFDA) freely permeates the plasma membrane and is hydrolyzed in the cytosol to form the DCFH carboxylate anion. Oxidation results in the formation of fluorescent DCF, which is maximally excited at 495 nm and emits at 520 nm.
(§4) Keratinocytes were seeded at 50,000 cells per well in 96 well black plates and allowed to grow as a monolayer for 24 hours. Cells were pre-treated with different concentration of Oleanoyl-KVK for one hour. The plate was exposed to UVA radiation for 1 hour. Freshly prepared DCFH-DA reagent was added to all the wells (2 ug/well). The plate was incubated at 37° C. for 30 minutes. Fluorescence was recorded at 485:520, Ex: Em wavelength in FluoStar Optima microplate reader.

[6] = system: keratinocytes exposed to oxidative stress; test: Gene expression in keratinocytes exposed to oxidative stress (quantitative RT-PCR); assay type: cell-based, human; details: cells exposed to oxidative stress
Description: as §1

[7] = system: TGF-β secretion by fibroblasts; test: TGF-β concentration in fibroblast culture supernatant; assay type: cell-based, human
[8] = system: Human keratinocytes (HaCAT); test: ROS scavenging in keratinocytes, heavy metal induced oxidative stress; assay type: cell-based; details: concentration of 12.5% (so in the source)
Description: as §2, §3
as §4, with “The plate was exposed to UVA radiation for 1 hour.” left out

Human dermal fibroblasts [9] = test: Proliferation of fibroblasts (SRB assay); assay type: cell-based; details: concentration of 12.5% (so in the source), 72 hours
Description: Human dermal fribroblasts were seeded at a density of 5×10^3 cells/well in DMEM 10% FBS and antibiotics in 96 well plate and allowed to form a monolayer in a humidified incubator at 37° C. and 5% CO2 atmosphere for 24 hours. Cells were treated with different concentration of the extract for 72 hours to assess the cytotoxicity. The viability of fibroblasts were determined by SRB assay (Nature protocols, 2006, 1, 3, 2112-16). Cells in DMEM with 0.1% DMSO was used as […] while media without cells were used as negative control

Human dermal fibroblasts [10] = test: Gene expression analysis in dermal fibroblasts (quantitative RT-PCR); assay type: cell-based; details: 6.25 μg/ml, 24 hours
Description: as §1

T1 sequence (P00772 27-266): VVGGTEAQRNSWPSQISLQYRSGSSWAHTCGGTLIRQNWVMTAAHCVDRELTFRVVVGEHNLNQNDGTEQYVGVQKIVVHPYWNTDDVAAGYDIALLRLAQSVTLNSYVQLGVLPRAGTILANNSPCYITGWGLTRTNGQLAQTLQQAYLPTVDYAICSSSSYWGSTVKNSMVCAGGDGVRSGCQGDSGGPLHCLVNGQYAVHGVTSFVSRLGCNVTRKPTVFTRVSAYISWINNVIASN

Compound: CC(C)[C@H](NC(=O)[C@H](CCCCN)NC(=O)[C@]12CCC(C)(C)C[C@H]1C1=CC[C@@H]3[C@@]4(C)CC[C@H](O)C(C)(C)[C@@H]4CC[C@@]3(C)[C@]1(C)CC2)C(=O)N[C@@H](CCCCN)C(=O)O [Oleanoyl-KVK, Lysine-Valine-Lysine (KVK) conjugated to Oleanolic acid]
- inhibition at 250 µg/mL ([1]; 250 μg/ml): 98%
- IC50 ([1]; DQ elastin substrate, 30 minutes, read-out: IC50 anti elastase activity (printed: anti collagenase activity) (converted)): 77 µM
- increase in collagen staining in fibroblasts (collagen in fibroblasts): 22.8%
- % Inhibition (TNF-α) ([2]; 1.56 μg/ml): 12.14%
- % Inhibition (TNF-α) ([2]; 3.12 μg/ml): 12.53%
- % Inhibition (TNF-α) ([2]; 6.25 μg/ml): 31.01%
- % Inhibition (TNF-α) ([2]; 12.5 μg/ml): 71.03%
- IC50 anti inflammatory activity ([2]; LPS stimulated THP-1, TNF-α ELISA): 9.09 µg/mL (≈ 11.2 µM)
- Cell viability (THP-1 cells; 1.56 μg/ml): 100%
- Cell viability (THP-1 cells; 3.12 μg/ml): 100%
- Cell viability (THP-1 cells; 6.25 μg/ml): 100%
- Cell viability (THP-1 cells; 12.5 μg/ml): 100%
- inhibition of collagenase enzyme activity ([3]; 250 μg/ml): 100%
- IC50 anti collagenase activity ([3]; DQ gelatin substrate, 30 minutes): 48.8 µg/mL
- gene expression in keratinocytes (FIG. 10: collagen, Elastin, TGF-β, hyaluronan synthase, epidermal growth factor) (keratinocytes): increased
- percent protection against UV induced DNA damage and death ([4]; 12.5 μg/ml): 47.9%
- reduction in late apoptosis [4]: concentration dependent reduction in late apoptosis
- increase in live cells ([4]; 12.5 μg/ml): highest increase in live cells
- reduction in early apoptosis ([4]; maximum at 12.5 μg/ml): concentration dependent reduction in early apoptosis
- ROS scavenging activity, UV induced stress [5]: 17.1%
- expression level of matrix metalloprotease 9 [6]: down regulated
- expression level of tumor necrosis factor α [6]: down regulated
- TGF-β secretion by fibroblasts [7]: dose dependent increase
- ROS scavenging, induced by heavy metals [8]: 20.4%
- increase in proliferation of fibroblasts (Human dermal fibroblasts [9]): 42.2%
- expression level of TGF-β (Human dermal fibroblasts [10]): increased
- expression level of collagen (Human dermal fibroblasts [10]): increased
- expression level of hyaluronan synthase (Human dermal fibroblasts [10]): increased
